Results from US10544444B2, “Compositions for in situ labeling of bacterial cell walls with fluorophores and methods of use thereof” (priority 2012, dated 2020).

Tests used:
[1] = tested on: Agrobacterium tumefaciens; test: Cell wall / PG labeling of live A. tumefaciens, fluorescence microscopy; assay type: cell-based; settings: for incorporation into the cell wall: control experiments, fluorescent D-Ala vs fluorescent L-Ala
[2] = tested on: E. coli, B. subtilis, A. tumefaciens, L. lactis, M. conglomeratus, C. crescentus and S. aureus; test: Short pulse labeling of evolutionarily distinct bacteria; assay type: cell-based; settings: pulsed for 2%-8% of generation time, immediately fixed

SMILES | incorporation into the cell wall [1] | PG labeling, long labeling pulses ([1]; live A. tumefaciens, long pulse) | visibility of sites of active cell wall synthesis [2]
NC(CNC(=O)c1cc2ccc(O)cc2oc1=O)C(=O)O (stereo not shown) [HADA] | incorporated into the cell wall | uniformly label PG | sites of active synthesis were clearly visible
N[C@@H](CNC(=O)c1cc2ccc(O)cc2oc1=O)C(=O)O [HALA] | only D-HCC was incorporated | – | –
